Assay results as given in patent publication US10242162B2 (LG Chem, Ltd., priority 2014, dated 2019).

Assay: Solubility measurement in water (Test Example)
Type: physicochemical
Details: 25° C., 1 atm, 24 hr
Experimental: In order to evaluate the validity of the method of determining the water insolubility according to the present invention in the Example and Comparative Example, the following testing was performed.

## c1ccc2ccccc2c1 [Bicyclo[4.4.0]deca-1,3,5,7,9-pentene]
100 g of water
  water solubility (in words): approximated zero

## CCC(C)O (centres unmarked) [2-butanol]
  amount dissolved in 100 g of water: 30 g
